The values that follow come from ChEMBL document CHEMBL5653631, “A Potent and Selective ULK1 Inhibitor Suppresses Autophagy and Sensitizes Cancer Cells to Nutrient Stress” (iScience, 2018).

The target of test [1] is TGF-beta receptor type-2 (Homo sapiens) (UniProt P37173). The test can be described thus: Inhibition of human recombinant TGFbR2 at 40 nM related to control ULK1.
In test [2] the target is Vascular endothelial growth factor receptor 2 (Homo sapiens) (UniProt P35968). The test can be described thus: Inhibition of human recombinant KDR at 40 nM related to control ULK1.
The target in test [3] is Dual specificity protein kinase CLK4 (Homo sapiens) (UniProt Q9HAZ1). Kind of test: Inhibition of human recombinant CLK4 at 40 nM in presence of ATP by radiometric assay relative to control.
The species entered for another test is Homo sapiens. The test can be described thus: Inhibition of human recombinant CK1d at 40 nM related to control ULK1.
The target in test [4] is Protein kinase C delta type (Homo sapiens) (UniProt Q05655). Kind of test: Inhibition of human recombinant PKCd at 40 nM in presence of ATP by radiometric assay relative to control.
Test [5] addresses Mitogen-activated protein kinase kinase kinase kinase 4 (Homo sapiens) (UniProt O95819). The test can be described thus: Inhibition of human recombinant HGK at 40 nM in presence of ATP by radiometric assay relative to control.
Test [6] concerns the target Serine/threonine-protein kinase mTOR (Homo sapiens) (UniProt P42345). The test can be described thus: Inhibition of human recombinant FRAP at 500 nM related to control ULK1.
The target of test [7] is T1, Tyrosine-protein kinase JAK3 (Homo sapiens) (UniProt P52333).
T1 sequence (whole entry): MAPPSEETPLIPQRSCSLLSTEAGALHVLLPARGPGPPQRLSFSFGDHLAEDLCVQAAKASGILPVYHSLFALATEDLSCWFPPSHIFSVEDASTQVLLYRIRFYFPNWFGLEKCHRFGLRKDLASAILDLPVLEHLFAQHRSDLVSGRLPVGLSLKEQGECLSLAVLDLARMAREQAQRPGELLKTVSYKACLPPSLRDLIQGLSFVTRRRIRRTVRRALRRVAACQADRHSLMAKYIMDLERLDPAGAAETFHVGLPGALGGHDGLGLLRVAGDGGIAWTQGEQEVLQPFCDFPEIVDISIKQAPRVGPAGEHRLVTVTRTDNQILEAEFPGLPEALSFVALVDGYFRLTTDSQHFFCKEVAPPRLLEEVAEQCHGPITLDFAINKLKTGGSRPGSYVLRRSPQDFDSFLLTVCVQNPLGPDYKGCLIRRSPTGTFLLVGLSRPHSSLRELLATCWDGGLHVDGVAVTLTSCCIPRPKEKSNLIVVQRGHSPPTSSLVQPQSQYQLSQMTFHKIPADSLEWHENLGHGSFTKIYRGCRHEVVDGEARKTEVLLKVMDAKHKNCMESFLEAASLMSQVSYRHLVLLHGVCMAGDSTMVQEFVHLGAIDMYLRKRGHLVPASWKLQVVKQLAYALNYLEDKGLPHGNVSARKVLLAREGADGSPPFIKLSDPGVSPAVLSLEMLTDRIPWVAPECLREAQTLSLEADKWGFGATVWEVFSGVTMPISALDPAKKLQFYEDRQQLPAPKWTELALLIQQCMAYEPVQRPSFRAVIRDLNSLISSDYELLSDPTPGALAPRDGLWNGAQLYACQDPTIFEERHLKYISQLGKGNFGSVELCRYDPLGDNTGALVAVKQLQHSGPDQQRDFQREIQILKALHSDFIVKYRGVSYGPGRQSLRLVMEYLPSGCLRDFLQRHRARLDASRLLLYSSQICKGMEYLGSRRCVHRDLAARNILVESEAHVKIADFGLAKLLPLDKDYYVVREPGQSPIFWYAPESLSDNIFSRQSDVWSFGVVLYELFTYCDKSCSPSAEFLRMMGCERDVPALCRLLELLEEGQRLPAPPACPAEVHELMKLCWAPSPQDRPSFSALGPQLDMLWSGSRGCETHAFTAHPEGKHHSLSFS
Kind of test: Inhibition of human recombinant JAK3 at 500 nM related to control ULK1.

Test [8] has as its target DNA-PK/Ku70/Ku85 (Homo sapiens) (UniProt P78527+P12956+P13010). The test can be described thus: Inhibition of human recombinant DNAPK at 500 nM related to control ULK1. It is filed as protein-complex assay.
The target of test [9] is Serine/threonine-protein kinase Chk2 (Homo sapiens) (UniProt O96017). The test can be described thus: Inhibition of human recombinant CHK2 at 500 nM related to control ULK1.
Test [10] addresses Serine/threonine-protein kinase MRCK alpha (Homo sapiens) (UniProt Q5VT25). Kind of test: Inhibition of human recombinant MRCKa at 500 nM related to control ULK1.
Test [11] has as its target Tyrosine-protein kinase Yes (Homo sapiens) (UniProt P07947). Kind of test: Inhibition of human recombinant YES at 15 nM in presence of ATP by radiometric assay relative to control.
Test [12] addresses T2, Testis-specific serine/threonine-protein kinase 2 (Homo sapiens) (UniProt Q96PF2).
T2 sequence (whole entry): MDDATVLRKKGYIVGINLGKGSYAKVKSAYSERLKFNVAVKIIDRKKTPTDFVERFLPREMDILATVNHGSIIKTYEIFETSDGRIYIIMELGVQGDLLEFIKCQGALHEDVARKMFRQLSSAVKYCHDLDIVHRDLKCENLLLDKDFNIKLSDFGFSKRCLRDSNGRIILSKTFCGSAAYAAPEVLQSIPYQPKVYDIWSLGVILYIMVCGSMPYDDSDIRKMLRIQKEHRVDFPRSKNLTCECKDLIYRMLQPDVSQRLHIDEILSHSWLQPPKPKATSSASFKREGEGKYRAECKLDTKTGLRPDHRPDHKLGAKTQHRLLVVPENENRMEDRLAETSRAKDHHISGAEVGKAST
The test can be described thus: Inhibition of human recombinant TSSK2 at 15 nM in presence of ATP by radiometric assay relative to control.

Test [13] concerns the target T3, Testis-specific serine/threonine-protein kinase 1 (Homo sapiens) (UniProt Q9BXA7).
T3 sequence (whole entry): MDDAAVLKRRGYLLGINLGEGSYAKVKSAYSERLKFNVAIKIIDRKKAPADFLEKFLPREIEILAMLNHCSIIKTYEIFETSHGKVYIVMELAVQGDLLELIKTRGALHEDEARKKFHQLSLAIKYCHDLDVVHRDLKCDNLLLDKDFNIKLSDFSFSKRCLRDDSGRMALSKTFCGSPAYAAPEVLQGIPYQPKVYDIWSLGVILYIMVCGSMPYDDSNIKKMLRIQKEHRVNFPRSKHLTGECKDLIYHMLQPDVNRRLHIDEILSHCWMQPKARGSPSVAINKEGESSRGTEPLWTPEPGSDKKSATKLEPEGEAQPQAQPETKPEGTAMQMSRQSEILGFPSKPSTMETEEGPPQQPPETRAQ
Kind of test: Inhibition of human recombinant TSSK1 at 15 nM related to control ULK1.

Test [14] deals with Tyrosine-protein kinase Lck (Homo sapiens) (UniProt P06239). The test can be described thus: Inhibition of human recombinant LCK at 15 nM in presence of ATP by radiometric assay relative to control.
Test [15] deals with Activin receptor type-2A (Homo sapiens) (UniProt P27037). Kind of test: Inhibition of human recombinant ACTR2 at 15 nM related to control ULK1.

On to `O=C(N[C@@H](C1CC1)C(F)(F)F)c1cc(-c2cnn3cc(-c4ccc(F)cc4)cnc23)cs1`, for which the fold change (FC) in test [1] worked out at 0.64; in test [2], 0.07; in the test listed under Homo sapiens, 0.04. Further, the inhibition was found to be 52% in test [3], 3% in test [4] and 0% in [5].

Consider `CNC(=O)c1ccccc1Oc1nc(Nc2cc(OC)c(OC)c(OC)c2)ncc1Br`, for which the fold change (FC) was 0 in test [6]; 0.28 in test [7]; 0.16 in test [8]; 0 in test [9]; 0.09 in test [10].

Consider `CC(C)[C@H](NC(=O)c1cc(-c2cnn3cc(-c4ccc(OCCN5CCCCC5)cc4)cnc23)cs1)C(F)(F)F`, for which the inhibition in [11] came out at 76%; in test [12], 1%; in test [14], 11%. Moreover, the fold change (FC) in test [13] was 0.26; in test [15], 0.05.

The inhibition is the relative decrease from the control value, in per cent.
